Reference: US20130203649A1, “INHIBITORS OF TLR SIGNALING BY TARGETING TIR DOMAIN INTERFACES” (UNIVERSITY OF MARYLAND, BALTIMORE, priority 2012, published 2013)
No end group written: not given here.

Legend:
TLR4 [1] = experiment: Inhibition of TLR4 signaling in thioglycollate-elicited mouse macrophages (effective concentration, overall inhibitory activity); assay type: cell-based; settings: TLR4 pathway; thioglycollate-elicited mouse macrophages
Method: (§1) C57BL/6J mice were obtained from The Jackson Laboratory (Bar Harbor, Me.). Primary peritoneal macrophages were obtained by peritoneal lavage 4 days after intraperitoneal injection (3 ml) of sterile 3% thioglycolate broth. Washed cells were resuspended in RPMI 1640 which contained 2% FBS, 1% penicillin:streptomycin and 2 mM L-glutamine. After plating, cells were incubated overnight at 37° C. and then washed with PBS to remove non-adherent cells. Cells were exposed to peptides 30 min before stimulation with a TLR agonist.
TIRAP/Mal functions to facilitate MyD88 recruitment to the activated TLR4 and TLR2, presumably through a simultaneous interaction with receptor and MyD88 TIR domains. Therefore, multiple TIR:TIR interaction sites are expected in TIRAP TIR. The decoy peptide approach was used to obtain leads on the functional protein-protein interfaces within TIRAP/Mal, a TLR adapter protein. To this end, eleven TIRAP TIR-derived decoy peptides were designed to be structurally homologous to the TLR4 TIR-derived decoy peptides used previously (1), so that each peptide represents a non-fragmented patch of the TIRAP TIR surface, with the entire domain encompassed by the set of peptides. The TIRAP TIR-derived decoy peptides were synthesized in tandem with the cell-permeating sequence of Antennapedia homeodomain (21) and each peptide was tested for the ability to inhibit TLR4 and TLR2 signaling in primary mouse macrophages. Peptide sequences and the structural regions they represent are shown in reference (30).
C57BL/6J mice were obtained from The Jackson Laboratory (BarHarbor, Me.). Harvesting, culturing, and stimulation of peritoneal macrophages were described in previous publications (1, 18, 19). Escherichia coli K235 LPS (34) was used at the final concentration of 100 ng/ml. The 2,3-bis(palmitoyloxy)-(2-RS)-propyl-N-palmitoyl-(R)-Cys-Ser-Lys4-OH (P3C) and S[2,3-bis(palmitoyloxy)-(2-RS)-propyl]-[R]-Cys-Ser-Lys4-OH (P2C) (EMC Microcollections, Tubingen, Germany) were used at 500 and 50 ng/ml, respectively. Oligonucleotide (ODN) 1668 and low m.w. polyinosinic-polycytidylic acid [poly(I:C)] in complex with LyoVec were obtained from InvivoGen; these agonists were used at 2.5 μM and 400 ng/ml, respectively.

TLR4 [2] = experiment: LPS-induced cytokine mRNA expression in mouse macrophages (real-time RT-PCR); assay type: cell-based
Method: as §1
Total cellular RNA was isolated using Tripure from Roche (San Francisco, Calif.) following manufacture's protocol. RNA was then reverse transcribed using AMV Reverse Transcriptase from Promega (Madison, Wis.) with poly-T priming as per manufacturer's directions. cDNA was then quantified by real-time PCR using Applied Biosystems Fast SYBR Green PCR Master Mix and an ABI Prism 7500HT cycler. Primers used for detection: hypoxanthine phosphoribosyltransferase (HPRT) (forward: […] (SEQ ID NO:51), reverse: […] (SEQ ID NO:52)), TNFα (forward: […] (SEQ ID NO:53), reverse: […] (SEQ ID NO:54)), IL-1β (forward: […] (SEQ ID NO:55), reverse: […] (SEQ ID NO:56)), IFNβ (forward: […] (SEQ ID NO:57), reverse: CTCGGACCACCATCCAGG (SEQ ID NO:58)) and RANTES (forward: […] (SEQ ID NO:59), reverse: […] (SEQ ID NO:60)). The primers were designed using Primer Express 2.0 (Applied Biosystems). Using HPRT as reference, the ΔCt method was used to calculate relative gene expression. One-way ANOVA was preformed, as well as Dunnett's multiple comparison post hoc test with a p≦0.01 selected as the level of significance.
Total RNA was isolated with Nucleospin RNA II kits (Macherey-Nagel, Bethlehem, Pa.), followed by DNase digestion. cDNA was synthesized from 1 μg RNA using Goscript transcriptase (Promega), and subjected to real-time PCR with gene-specific primers for HPRT, TNF-α, IL-1β, IFNβ, and RANTES on H7900 ABI system using Fast SYBR Green master mix (Applied Biosystems, Foster City, Calif.).
To evaluate peptide-inhibitory activities, we first measured LPS-induced cytokine mRNA expression. […] […] Decoy peptide TM4 is derived from the BB loop of TRAM TIR; we previously identified this peptide as an effective TLR4 inhibitor (19).

TLR4 [3] = experiment: LPS-induced MAPK (ERK, JNK, p38) activation in mouse macrophages (Western analysis); assay type: cell-based
Method: Cellular protein extracts were isolated by addition of 240 μL per well cold lysate buffer (20 mM Tris, 50 mM NaCl, 1.5 mM MgCl2, 2 mM EDTA, 10 mM NaF, 2 Mm DTT, 1 mM Na3VO4, 1% Triton). Cells were incubated with lysis solution for 30 min on agitator at 4° C. Lysate was then collected and centrifuged at 14,000 g for 10 minutes at 4° C. After quantification using BioRad protein assay, protein samples were added to Laemmli buffer and then boiled for 10 min. Samples were then resolved by SDS-10% PAGE in Tris/glycine/SDS buffer (25 mM Tris, 250 mM glycine, 0.1% SDS), and transferred onto Immobilon P transfer membranes (Millipore, Bedford, Mass.) (100 V, 1.5 h, 4° C.). Membranes were blocked for 1 h in TBS-T (20 mM Tris-HCl, 150 mM NaCl, 0.1% Tween 20) containing 5% nonfat milk, then probed for overnight at 4° C. with the respective antibodies (Abs) (dilution 1:1000 in TBS-T with 2% BSA). After washing in TBS-T, membranes were incubated with secondary HRP-conjugated, donkey anti-rabbit IgG (1:10,000 dilution in TBS-T with 5% nonfat milk) for 1 h at room temperature. Membranes washed five times in TBS-T before development with ECL reagents (GE Healthcare) according to manufacturer's directions.
HEK293T cells were transfected with indicated plasmids using Superfect Transfection Reagent (Qiagen). Twenty-four hours posttransfection, the cells were lysed using the buffer containing 20 mM HEPES (pH 7.4), 150 mM NaCl, 10 mM NaF, 2 mM Na3VO4, 1 mM EDTA, 1 mM EGTA, 0.5% Triton X-100, 0.1 M DTT, 1 mM PMSF, and protease inhibitor mixture (Roche, Indianapolis, Ind.). Rabbit Ab against phospho-ERK, phospho-JNK, MyD88 (D80F5), STAT1-Y701, total STAT1, and GAPDH were purchased from Cell Signaling Technology (Beverly, Mass.). Rabbit anti-phospho-p38 Ab was purchased from Promega (Madison, Wis.). Goat anti-TLR4 (M−16), rabbit anti-TLR4 (H-80), anti-HA-HRP (F-7), and rabbit anti-b-actin Ab were purchased from Santa Cruz Biotechnology. Mouse anti-Flag M2 and rabbit anti-HA Ab were from Sigma-Aldrich. GFP Ab (A1122) was from Invitrogen. Protein was quantified using Bio-Rad protein quantification kit. Equal amount of protein was loaded and analyzed by 10% SDS-PAGE and immunoblotting. The cell extracts containing equal amount of protein were incubated with 1 μg Ab for 2 h, followed by 4-h incubation with 25 μl protein G agarose beads (Roche); the beads were then washed four times with lysis buffer, boiled in […] sample loading buffer, and analyzed by immunoblotting.
We next examined whether TRAM peptides inhibit the TLR4-mediated p38, ERK, and JNK MAPK activation. Murine macrophages pretreated with peptides for 30 min were challenged with LPS. Cell lysates were collected 30 min post-stimulation and analyzed for MAPK phosphorylation by Western analysis. Consistent with peptide effects on steady-state mRNA, both TM4 and TM6 inhibited activation of all three MAPKs (FIG. 5C). The inhibition of MAPKs by TM4 or TM6 was long lasting; it persisted for at least 1 h after LPS stimulation (data not shown). To characterize further the effects of TRAM peptides on MAPKs, murine macrophages were treated with TRAM peptides, but not challenged by LPS.

TLR4 [4] = settings: from references (1, 22); cited from earlier work
TLR4 [5] = experiment: LPS-induced cytokine secretion by mouse macrophages (ELISA/multiplex); assay type: cell-based; settings: 5 or 20 μM peptide; LPS 100 ng/ml; supernatants 24 h
Method: Cytokine secretion was measured in supernatant samples collected at 6 or 24 h time points and stored at −80° C. Samples were analyzed by a multiplex assay at the University of Maryland Baltimore Cytokine Core Facility using a Luminex 100 reader and Softmax Pro software, or by ELISA kits for mouse IL-6 or TNF-α from BioLegend (San Diego, Calif.) and LT-4000 microplate reader.
A total of 2×10^6 cells was plated in 12-well plates and treated with peptides for 30 min prior to LPS stimulation. TNF-α, IL-1β, IL-6, and IFN-β were measured using ELISA kits from BioLegend (San Diego, Calif.), as recommended by the manufacturer.

TLR4 [6] = experiment: LPS-induced STAT1-Y701 phosphorylation in macrophages (immunoblotting); assay type: cell-based, mouse; settings: 2 h after LPS

Row | Sequence | Effective conc. (TLR4 [1]) [µM] | LPS-induced cytokine mRNA induction (TLR4 [2]; peritoneal macrophages (FIG. 14A)) | LPS-induced activation of ERK and JNK MAPKs (TLR4 [3]; peritoneal macrophages (FIG. 14B)) | Inhibition of TLR4 (overall) (TLR4 [4]) | LPS-induced (TLR4-mediated) cytokine mRNA expression (TLR4 [2]; 5 or 20 μM peptide 30 min before LPS, 1 or 5 h) | LPS-induced p38, ERK, and JNK MAPK activation (TLR4 [3]; lysates 30 min after LPS) | LPS-induced cytokine secretion (TLR4 [5]) | LPS-induced STAT1-Y701 phosphorylation (TLR4 [6])
1 | RQIKIWFQNRRMKWKKLHYRDFIPGVAIAA [4R4/4BB] | 20 | potently inhibit | potently inhibit | quite potent inhibitor | – | – | – | –
2 | RQIKIWFQNRRMKWKKCEEFQVPGRGELH [TF4] | 20 | – | – | – | inhibit | inhibit | inhibit | inhibit
